Measured values published in US9456992B2 (XSPRAY MICROPARTICLES AB, priority 2012, dated 2016).
Where a name gives a salt, the structure may show the parent alone.

Tests used:
[1] = Dissolution measurement assay (apparent solubility, non-sink) in FaSSIF solution (pH 6.5); conditions: for AUC/ 80 min. Mg/min/L: Area Under the Curve during 80 minutes dissolution in FaSSIF solution (pH 6.5)
Protocol: The medium was prepared in accordance with the manufacturer's instructions. The amount of powder added depends on the wished “total PKI concentration”. […] For other experiments, the drug load was first estimated by HPLC and the amount of powder to obtain the drug concentration was calculated.
Typically, the powder was added in a 8 mL glass bottle and 7 mL of solution was added (typically FaSSIF, FeSSIF or SGF). The glass bottle was put on a shaker (approximately 1 rotation per minute) for dissolution. Samples of 500 μl where taken after different times, and subsequently centrifuged at approximately 15000 g for 3 minutes. The resulting supernatant was then analyzed by HPLC (C18 column Eclipse, 4.6 mm×15 cm, 1 mL/min, detection at […]. Generally samples were taken after 5, 30 and 90 min and eventually 150 min.
A number of experiments were carried out, wherein nilotinib base or nilotinib HCl represented the protein kinase inhibitor. The experiments were carried out by measuring concentration of solubilized PKI (mg/L) after 5, 30 and 90 minutes dissolution in a solution at about pH 6.5, namely FaSSIF (Fasted State Simulated Intestinal Fluid). Further, experiments were carried out in an alternative solution at about pH 5, namely FeSSIF (Fed State Simulated Intestinal Fluid). Samples of the solution were taken at various time intervals and the amount of protein kinase inhibitor was measured by the dissolution measurement assay described above.
A number of experiments were carried out, wherein erlotinib HCl represented the PKI. The experiments were carried out by measuring concentration of PKI (mg/L) after 5, 30 and 90 minutes dissolution in a solution at about pH 6.5, namely FaSSIF (Fasted State Simulated Intestinal Fluid). Further, experiments were carried out in an alternative solution at about pH 5, namely FeSSIF (Fed State Simulated Intestinal Fluid). Samples of the solution were taken at various time intervals and the amount of PKI was measured by the dissolution measurement assay described above.
A number of experiments were carried out, wherein pazopanib represented the PKI. The experiments were carried out by measuring concentration of PKI (mg/L) after 5, 30 and 90 minutes dissolution in a solution at about pH 6.5, namely FaSSIF (Fasted State Simulated Intestinal Fluid). Further, experiments were carried out in an alternative solution at about pH 5, namely FeSSIF (Fed State Simulated Intestinal Fluid). Samples of the solution were taken at various time intervals and the amount of PKI was measured by the dissolution measurement assay described above.
A number of experiments were carried out, wherein lapatinib base or lapatinib ditosylate salt represented the PKI. The experiments were carried out by measuring concentration of PKI (mg/L) after 5, 30 and 90 minutes dissolution in a solution at about pH 6.5, namely FaSSIF (Fasted State Simulated Intestinal Fluid). Samples of the solution were taken at various time intervals and the amount of PKI was measured by the dissolution measurement assay described above.
A number of experiments were carried out, wherein gefitinib represented the PKI. The experiments were carried out by measuring concentration of PKI (mg/L) after 3, 40 and 80 minutes dissolution in a solution at about pH 6.5, namely FaSSIF (Fasted State Simulated Intestinal Fluid). Samples of the solution were taken at various time intervals and the amount of PKI was measured by the dissolution measurement assay described above.
A number of experiments were carried out, wherein dasatinib represented the PKI. The experiments were carried out by measuring concentration of PKI (mg/L) after 3, 40 and 80 minutes dissolution in a solution at about pH 6.5, namely FaSSIF (Fasted State Simulated Intestinal Fluid). Samples of the solution were taken at various time intervals and the amount of PKI was measured by the dissolution measurement assay described above.

[2] = Dissolution rate measurement in sink conditions, flow through cell system, FaSSIF, 37° C.; format: physicochemical; conditions: sink condition in FaSSIF
Protocol: Typically, said dissolution rate is measured by a flow through cell system in sink conditions, e.g., according to the US Pharmacopea (USP4). Dissolution measurement in sink conditions of hybrid nanoparticles may be measured in a method consisting of adding the wished amount of powder into a flow through cell system (SOTAX, Allschwill, Switzerland), mounting the cell onto its apparatus and then pumping the appropriate medium (typically FaSSIF, FeSSIF, SGF) through the powder. The temperature of the apparatus is typically set to 37° C. The amount of powder added into the cell depends on drug load of the powder: The exact amount of powder can be calculated from results obtained from drug load analysis of the powders. The PKI may be added into the flow through cell and a flow rate between 5 and 25 ml medium/min is pumped through the powder. […] Samples are typically taken after 0, 0.5, 1, 1.5, 2, 3, 4, 5, 6, 7, 8, 9, 10, 15, 20, 25, 30, 35 and 40 min from the moment the medium comes out from the flow through cell. The accumulated % solubilized of the amount of active substance added into the flow through cell can be calculated and plotted against time (min). The initial slope (“initial dissolution rate”, representing 0-10 minutes) of the graph may be estimated and taken as the dissolution rate of the material in sink condition at 37° C. in the given dissolution medium.
Typically, said dissolution rate is measured by a flow through cell system, for instance in sink conditions. […] The temperature of the apparatus is typically set to 37° C. The amount of powder added into the cell depends on drug load of the powder: The exact amount of powder can be calculated from results obtained from drug load analysis of the powders. The PKI may be added into the flow through cell and a flow rate between 5 and 25 ml medium/min is pumped through the powder. […] Samples are typically taken after 0, 0.5, 1, 1.5, 2, 3, 4, 5, 6, 7, 8, 9, 10, 15, 20, 25, 30, 35 and 40 min from the moment the medium comes out from the flow through cell. The accumulated % solubilized of the amount of active substance added into the flow through cell, can be calculated and plotted against time (min). The initial slope (“initial dissolution rate”, representing 0-10 minutes) of the graph can be estimated and taken as the dissolution rate of the material in sink condition at 37° C. in the given dissolution medium.
Dissolution measurement in sink conditions of compositions of the invention were measured in a method consisting of adding the wished amount of powder into a flow through cell system (SOTAX, Allschwill, Switzerland), mounting the cell onto its apparatus and then pumping the appropriate medium (typically FaSSIF, FeSSIF, SGF) through the powder. The temperature of the apparatus was set to 37° C. The amount of powder added into the cell depends on drug load of the powder: The exact amount of powder was calculated from results obtained from drug load analysis of the powders.
Typically, 3.5 to 7 mg PKI was added into the flow through cell and a flow rate between 8 and 16 ml medium/min (preferably about 8 ml medium/min) was pumped through the powder. One ml samples of the medium passing through the cell were collected at predetermined times. […] Samples were taken after 0, 0.5, 1, 1.5, 2, 3, 4, 5, 6, 7, 8, 9, 10, 15, 20, 25, 30, 35 and 40 min from the moment the medium comes out from the flow through cell. The accumulated % solubilized of the amount of active substance added into the flow through cell was calculated and plotted against time (min). The initial slope (“initial dissolution rate”) of the graph was estimated, as measured during 0 to 10 minutes, and taken as the dissolution rate of the material in sink condition at 37° C. in the given dissolution medium.

[3] = nilotinib HCl, FaSSIF solution (pH 6.5), after 30 minutes dissolution, HCl

With `COc1cc2ncnc(Nc3ccc(F)c(Cl)c3)c2cc1OCCCN1CCOCC1` [Exp 131, gefitinib] the “AUC/ 80 min. Mg/min/L” value ([1]; gefitinib) was 5967 Mg/min/L.

For `CNC(=O)c1cc(Oc2ccc(NC(=O)Nc3ccc(Cl)c(C(F)(F)F)c3)cc2)ccn1.Cc1ccc(S(=O)(=O)O)cc1` [Experiment 560], the “Accumulated % of solubilized of remaining active substance at a given time (min)” value ([2]; 0 min) was 0.2%, the “Accumulated % of solubilized of remaining active substance at a given time (min)” value ([2]; 0.5 min) was 0.4% and the “Accumulated % of solubilized of remaining active substance at a given time (min)” value ([2]; 1 min) was 0.7%. For the same compound, the “Accumulated % of solubilized of remaining active substance at a given time (min)” value ([2]; 1.5 min) was 1.0%, the “Accumulated % of solubilized of remaining active substance at a given time (min)” value ([2]; 2 min) was 1.3% and the “Accumulated % of solubilized of remaining active substance at a given time (min)” value ([2]; 3 min) was 1.8%. The “Accumulated % of solubilized of remaining active substance at a given time (min)” value ([2]; 4 min) was 2.2%, the “Accumulated % of solubilized of remaining active substance at a given time (min)” value ([2]; 5 min) was 2.6% and the “Accumulated % of solubilized of remaining active substance at a given time (min)” value ([2]; 6 min) was 3.0%. For the same compound, the “Accumulated % of solubilized of remaining active substance at a given time (min)” value ([2]; 7 min) was 3.4%, the “Accumulated % of solubilized of remaining active substance at a given time (min)” value ([2]; 8 min) was 3.8% and the “Accumulated % of solubilized of remaining active substance at a given time (min)” value ([2]; 9 min) was 4.2%. For the same compound, the “Accumulated % of solubilized of remaining active substance at a given time (min)” value ([2]; 10 min) was 4.6% and the “Accumulated % of solubilized of remaining active substance at a given time (min)” value ([2]; 20 min) was 8.8%.

With `CNC(=O)c1ccccc1Sc1ccc2c(/C=C/c3ccccn3)n[nH]c2c1` [Exp 157, axitinib] the “Conc (mg/L) 3 min” value ([1]; pH 6.5) was 0.6 mg/L, the “Conc (mg/L) 40 min” value ([1]; 40 min, pH 6.5) was 0.6 mg/L and the “Conc (mg/L) 80 min” value ([1]; pH 6.5) was 0.6 mg/L. The “AUC/ 80 min. Mg/min/L” value ([1]; axitinib) was 4.7 Mg/min/L and the “% solubilized 40 min.” value ([1]; axitinib, after 40 minutes dissolution in FaSSIF solution (pH 6.5)) was 0.1%.

In the case of `Cc1cn(-c2cc(NC(=O)c3ccc(C)c(Nc4nccc(-c5cccnc5)n4)c3)cc(C(F)(F)F)c2)cn1` [Exp 4, Nilotinib Base], the “% solubilized 30 min.” value ([1]; nilotinib HCl, FaSSIF solution (pH 6.5), after 30 minutes dissolution) is reported as 0.50%.

With `CS(=O)(=O)CCNCc1ccc(-c2ccc3ncnc(Nc4ccc(OCc5cccc(F)c5)c(Cl)c4)c3c2)o1` [Exp 110, lapatinib base] the “Conc (mg/L) 5 min” value ([1]; lapatinib, 5 minutes dissolution in FaSSIF solution (pH 6.5)) was 2.9 mg/L, the “Conc (mg/L) 30 min” value ([1]; lapatinib, 30 minutes dissolution in FaSSIF solution (pH 6.5)) was 6.0 mg/L and the “Conc (mg/L) 90 min” value ([1]; lapatinib, 90 minutes dissolution in FaSSIF solution (pH 6.5)) was 6.5 mg/L. For the same compound, the “AUC/ 90 min. Mg/min/L” value ([1]; lapatinib, Area Under the Curve during 90 minutes dissolution in FaSSIF solution (pH 6.5)) was 494 Mg/min/L and the “% solubilized 30 min.” value ([1]; lapatinib, after 30 minutes dissolution in FaSSIF solution (pH 6.5)) was 0.3%.

For `Cc1nc(Nc2ncc(C(=O)Nc3c(C)cccc3Cl)s2)cc(N2CCN(CCO)CC2)n1` [Exp 138, dasatinib], the “AUC/ 80 min. Mg/min/L” value ([1]; dasatinib) was 2396 Mg/min/L and the “% solubilized 40 min.” value ([1]; dasatinib, after 40 minutes dissolution in FaSSIF solution (pH 6.5)) was 6.0%.

With `CNC(=O)c1cc(Oc2ccc(NC(=O)Nc3ccc(Cl)c(C(F)(F)F)c3)cc2)ccn1` [Exp 142, sorafenib tosylate] the “Conc (mg/L) 40 min” value ([1]; 40 min, pH 6.5) was 343.51 mg/L.

In the case of `Cc1ccc(Nc2nccc(N(C)c3ccc4c(C)n(C)nc4c3)n2)cc1S(N)(=O)=O` [Exp 84, pazopanib], the “% solubilized 30 min.” value ([1]; 30 min, pH 6.5) is reported as 2.4% and the “Conc (mg/L) 90 min” value ([1]; 90 min, pH 6.5) is reported as 15.0 mg/L.

For `CCCS(=O)(=O)Nc1ccc(F)c(C(=O)c2c[nH]c3ncc(-c4ccc(Cl)cc4)cc23)c1F` [Exp 164, vemurafenib], the “Conc (mg/L) 3 min” value ([1]; pH 6.5) was 0.3 mg/L, the “% solubilized 40 min.” value ([1]; 40 min, pH 6.5) was 0.1% and the “Conc (mg/L) 40 min” value ([1]; 40 min, pH 6.5) was 0.3 mg/L. The “Conc (mg/L) 80 min” value ([1]; pH 6.5) was 0.4 mg/L.

With `Cc1cn(-c2cc(NC(=O)c3ccc(C)c(Nc4nccc(-c5cccnc5)n4)c3)cc(C(F)(F)F)c2)cn1` [Exp 3, Nilotinib HCl] the “% solubilized 30 min.” value [1, 3] was 0.03%.

In the case of `C#Cc1cccc(Nc2ncnc3cc(OCCOC)c(OCCOC)cc23)c1` [Exp 58, erlotinib HCl], the “Conc (mg/L) 90 min” value ([1]; 90 min, pH 6.5) is reported as 4.6 mg/L, the “% solubilized 30 min.” value ([1]; erlotinib HCl, FaSSIF solution (pH 6.5), 30 min dissolution) is reported as 0.6% and the “AUC/ 90 min.” value ([1]; erlotinib HCl, FaSSIF solution (pH 6.5), AUC during 90 min dissolution) is reported as 837 Mg/min/L.

For `Cc1cn(-c2cc(NC(=O)c3ccc(C)c(Nc4nccc(-c5cccnc5)n4)c3)cc(C(F)(F)F)c2)cn1` [Exp 2, Nilotinib HCl], the “% solubilized 30 min.” value [1, 3] was 0.04%.

In the case of `Cc1cn(-c2cc(NC(=O)c3ccc(C)c(Nc4nccc(-c5cccnc5)n4)c3)cc(C(F)(F)F)c2)cn1` [Exp 1, Nilotinib HCl], the “% solubilized 30 min.” value [1, 3] is reported as 0.20% and the “AUC/ 90 min. Mg/min/L” value ([1]; nilotinib, FaSSIF solution (pH 6.5), Area Under the Curve during 90 minutes dissolution, HCl) is reported as 13.0 Mg/min/L.
